Structures are written as SMILES. Calls of active or inactive are those of the source. No cut-off for these calls is given here.

In this assay the test system is Radical scavenging activity. In words: Antioxidant activity assessed as DPPH radical scavenging activity. It is filed as functional. On the technique in general: Loss of DPPH colour is used to gauge radical scavenging.

For the compound `CC(C)=C[C@H]1C=C(C)[C@@H]2CC[C@H](C)[C@@]23CCC(C)=C[C@@H]13` (relative stereo), the result was inactive.
With `CC(C)=C[C@H]1C=C(C)[C@H]2CC[C@H](C)[C@@H]3CC=C(C)[C@@H]1[C@@H]32` (relative stereo), the result was inactive.

(Values after ChEMBL document CHEMBL2010733, “Amphilectane diterpenes from Salvia sclarea: biosynthetic considerations” (J Nat Prod, 2012).)
